Test results published in ChEMBL document CHEMBL1201862, “PubChem BioAssay data set” (2004).
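How tested: cells in 96-well plates exposed to compound for 48 hours at five concentrations. GI50 marks 50% less growth.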 Calls of active or inactive are those of the source. No stated cut-off is given here; in the data, active = GI50 up to about 1.1 µM and inactive = higher.

Experiments:
Experiment in all cases: NCI-60 cell line screen, 48 h
[1] = system: T47D
[2] = system: SF-295
[3] = system: A498
[4] = system: SR
[5] = system: EKVX
[6] = system: OVCAR-8
[7] = system: OVCAR-5
[8] = system: U-251
[9] = system: UO-31
[10] = system: BT-549
[11] = system: SF-268
[12] = system: K562
[13] = system: MDA-MB-435
[14] = system: HL-60
[15] = system: NCI/ADR-RES
[16] = system: SNB-19
[17] = system: HT-29
[18] = system: HOP-92
[19] = system: RPMI-8226
[20] = system: RXF 393
[21] = system: SW-620
[22] = system: LOX IMVI
[23] = system: MOLT-4
[24] = system: Hs-578T
[25] = system: SN12C
[26] = system: MDA-MB-231
[27] = system: M14
[28] = system: IGROV-1
[29] = system: A549
[30] = system: CCRF-CEM
[31] = system: PC-3
[32] = system: SK-MEL-5
[33] = system: HCT-15
[34] = system: TK-10
[35] = system: SF-539
[36] = system: UACC-257
[37] = system: 786-0
[38] = system: MDA-N
[39] = system: UACC-62
[40] = system: OVCAR-3
[41] = system: ACHN
[42] = system: DU-145
[43] = system: SNB-75
[44] = system: NCI-H460
[45] = system: NCI-H522
[46] = system: SK-MEL-28
[47] = system: CAKI-1
[48] = system: NCI-H23
[49] = system: COLO 205
[50] = system: OVCAR-4
[51] = system: HCC 2998
[52] = system: HCT-116
[53] = system: HOP-62
[54] = system: SK-MEL-2
[55] = system: SK-OV-3
[56] = system: KM12
[57] = system: MCF7
[58] = system: Malme-3M
[59] = system: NCI-H226
[60] = system: LXFL 529
[61] = system: DLD-1
[62] = system: DMS-114
[63] = system: DMS-273
[64] = system: XF498
[65] = system: M19-MEL
[66] = system: KM-20L2

Structure (SMILES): COc1ccc(NC(=S)N/N=C2\C(=O)Nc3ccccc32)cc1
- GI50 [1]: 7.98 µM (inactive)
- GI50 [2]: 3.47 µM (inactive)
- GI50 [3]: 40.6 µM (inactive)
- GI50 [4]: 8.51 µM (inactive)
- GI50 [5]: 9.14 µM (inactive)
- GI50 [6]: 7.55 µM (inactive)
- GI50 [7]: 65 µM (inactive)
- GI50 [8]: 5.22 µM (inactive)
- GI50 [9]: 5.18 µM (inactive)
- GI50 [10]: 4.74 µM (inactive)
- GI50 [11]: 17.5 µM (inactive)
- GI50 [12]: 5.69 µM (inactive)
- GI50 [13]: 52.2 µM (inactive)
- GI50 [14]: 2.49 µM (inactive)
- GI50 [15]: 2.07 µM (inactive)
- GI50 [16]: 41.7 µM (inactive)
- GI50 [17]: 7.96 µM (inactive)
- GI50 [18]: 44 µM (inactive)
- GI50 [19]: 31.4 µM (inactive)
- GI50 [20]: 9.27 µM (inactive)
- GI50 [21]: 6.28 µM (inactive)
- GI50 [22]: 2.92 µM (inactive)
- GI50 [23]: 4.93 µM (inactive)
- GI50 [24]: 29.2 µM (inactive)
- GI50 [25]: 40.4 µM (inactive)
- GI50 [26]: 30.9 µM (inactive)
- GI50 [27]: 21.9 µM (inactive)
- GI50 [28]: 4.83 µM (inactive)
- GI50 [29]: 5.52 µM (inactive)
- GI50 [30]: 2.43 µM (inactive)
- GI50 [31]: 19.2 µM (inactive)
- GI50 [32]: 9.27 µM (inactive)
- GI50 [33]: 0.984 µM
- GI50 [34]: 22 µM (inactive)
- GI50 [35]: 6.41 µM (inactive)
- GI50 [36]: 47 µM (inactive)
- GI50 [37]: 7.55 µM (inactive)
- GI50 [38]: 55.6 µM (inactive)
- GI50 [39]: 6.24 µM (inactive)
- GI50 [40]: 28.8 µM (inactive)
- GI50 [41]: 6.5 µM (inactive)
- GI50 [42]: 13.6 µM (inactive)
- GI50 [43]: 48 µM (inactive)
- GI50 [44]: 3.13 µM (inactive)
- GI50 [45]: 18.7 µM (inactive)
- GI50 [46]: 43.1 µM (inactive)
- GI50 [47]: 5.11 µM (inactive)
- GI50 [48]: 14.7 µM (inactive)
- GI50 [49]: 6.52 µM (inactive)
- GI50 [50]: 9.77 µM (inactive)
- GI50 [51]: 27.2 µM (inactive)
- GI50 [52]: 5.14 µM (inactive)
- GI50 [53]: 12.2 µM (inactive)
- GI50 [54]: 40.1 µM (inactive)
- GI50 [55]: 20.8 µM (inactive)
- GI50 [56]: 13 µM (inactive)
- GI50 [57]: 9.48 µM (inactive)
- GI50 [58]: 12.9 µM (inactive)
- GI50 [59]: 8.97 µM (inactive)

Structure (SMILES): Cc1cc(N(CCC#N)CCC#N)ccc1/C=C1/N=C(c2ccccc2)N(N)C1=O
- GI50 [2]: 46.1 µM (inactive)
- GI50 [60]: > 100 µM (inactive)
- GI50 [3]: > 100 µM (inactive)
- GI50 [5]: > 100 µM (inactive)
- GI50 [6]: > 100 µM (inactive)
- GI50 [61]: > 100 µM (inactive)
- GI50 [7]: > 100 µM (inactive)
- GI50 [8]: 63.7 µM (inactive)
- GI50 [9]: > 100 µM (inactive)
- GI50 [11]: 60.1 µM (inactive)
- GI50 [12]: 53.5 µM (inactive)
- GI50 [62]: 75 µM (inactive)
- GI50 [14]: 27 µM (inactive)
- GI50 [16]: 31.1 µM (inactive)
- GI50 [17]: > 100 µM (inactive)
- GI50 [18]: 30 µM (inactive)
- GI50 [19]: > 100 µM (inactive)
- GI50 [21]: 85.5 µM (inactive)
- GI50 [22]: 49.3 µM (inactive)
- GI50 [23]: > 100 µM (inactive)
- GI50 [25]: > 100 µM (inactive)
- GI50 [27]: > 100 µM (inactive)
- GI50 [28]: 79.8 µM (inactive)
- GI50 [29]: 84.1 µM (inactive)
- GI50 [30]: 61.7 µM (inactive)
- GI50 [63]: 89.1 µM (inactive)
- GI50 [32]: > 100 µM (inactive)
- GI50 [33]: > 100 µM
- GI50 [64]: > 100 µM (inactive)
- GI50 [34]: 74.1 µM (inactive)
- GI50 [35]: 60.8 µM (inactive)
- GI50 [36]: > 100 µM (inactive)
- GI50 [37]: 37.6 µM (inactive)
- GI50 [39]: 99.8 µM (inactive)
- GI50 [40]: > 100 µM (inactive)
- GI50 [41]: > 100 µM (inactive)
- GI50 [43]: 21.1 µM (inactive)
- GI50 [45]: 26 µM (inactive)
- GI50 [46]: > 100 µM (inactive)
- GI50 [47]: 98.2 µM (inactive)
- GI50 [48]: 56.9 µM (inactive)
- GI50 [49]: > 100 µM (inactive)
- GI50 [50]: 34.8 µM (inactive)
- GI50 [51]: > 100 µM (inactive)
- GI50 [65]: > 100 µM (inactive)
- GI50 [52]: > 100 µM (inactive)
- GI50 [53]: 31.9 µM (inactive)
- GI50 [54]: > 100 µM (inactive)
- GI50 [55]: > 100 µM (inactive)
- GI50 [56]: > 100 µM (inactive)
- GI50 [66]: > 100 µM (inactive)
- GI50 [58]: > 100 µM (inactive)
- GI50 [59]: > 100 µM (inactive)
